Assays:
[1] = target: T1, Bromodomain-containing protein 1 (Homo sapiens) (UniProt O95696); assay: Binding affinity to BRPF2 (unknown origin) assessed as change in gibbs free energy at 12 uM by Isothermal titration calorimetry
T1 sequence (whole entry): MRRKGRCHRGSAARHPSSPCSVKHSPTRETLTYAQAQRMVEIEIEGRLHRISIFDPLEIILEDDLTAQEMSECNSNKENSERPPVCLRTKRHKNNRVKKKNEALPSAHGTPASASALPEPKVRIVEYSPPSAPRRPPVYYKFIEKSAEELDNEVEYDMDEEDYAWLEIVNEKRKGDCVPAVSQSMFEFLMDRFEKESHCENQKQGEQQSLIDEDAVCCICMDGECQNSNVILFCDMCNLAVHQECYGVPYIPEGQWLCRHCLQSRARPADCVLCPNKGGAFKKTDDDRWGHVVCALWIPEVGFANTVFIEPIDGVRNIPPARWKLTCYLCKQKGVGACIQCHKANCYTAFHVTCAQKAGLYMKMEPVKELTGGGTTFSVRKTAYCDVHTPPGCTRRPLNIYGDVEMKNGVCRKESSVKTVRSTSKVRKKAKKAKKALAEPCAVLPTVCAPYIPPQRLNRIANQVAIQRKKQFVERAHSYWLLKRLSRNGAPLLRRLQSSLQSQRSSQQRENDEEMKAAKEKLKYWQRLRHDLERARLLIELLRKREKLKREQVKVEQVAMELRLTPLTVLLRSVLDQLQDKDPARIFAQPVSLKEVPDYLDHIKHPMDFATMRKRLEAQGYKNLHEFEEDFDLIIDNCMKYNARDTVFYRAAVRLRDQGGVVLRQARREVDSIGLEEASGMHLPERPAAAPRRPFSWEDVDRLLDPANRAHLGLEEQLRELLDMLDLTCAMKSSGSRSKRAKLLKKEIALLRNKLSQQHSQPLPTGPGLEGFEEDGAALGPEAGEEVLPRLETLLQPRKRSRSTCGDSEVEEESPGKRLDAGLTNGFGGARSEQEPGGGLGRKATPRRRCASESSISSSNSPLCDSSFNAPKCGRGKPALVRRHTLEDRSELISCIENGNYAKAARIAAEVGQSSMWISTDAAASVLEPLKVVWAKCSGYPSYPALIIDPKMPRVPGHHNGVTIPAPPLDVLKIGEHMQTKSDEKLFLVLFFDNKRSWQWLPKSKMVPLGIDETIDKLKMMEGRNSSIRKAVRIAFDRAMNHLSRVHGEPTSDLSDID

[2] = target: Transcription intermediary factor 1-alpha (Homo sapiens) (UniProt O15164); settings: dose 10.0 µM
[3] = target: Tyrosine-protein kinase BAZ1B (Homo sapiens) (UniProt Q9UIG0); settings: dose 10.0 µM
Tyrosine-protein kinase BAZ1B (Homo sapiens), sequence (Q9UIG0 whole entry): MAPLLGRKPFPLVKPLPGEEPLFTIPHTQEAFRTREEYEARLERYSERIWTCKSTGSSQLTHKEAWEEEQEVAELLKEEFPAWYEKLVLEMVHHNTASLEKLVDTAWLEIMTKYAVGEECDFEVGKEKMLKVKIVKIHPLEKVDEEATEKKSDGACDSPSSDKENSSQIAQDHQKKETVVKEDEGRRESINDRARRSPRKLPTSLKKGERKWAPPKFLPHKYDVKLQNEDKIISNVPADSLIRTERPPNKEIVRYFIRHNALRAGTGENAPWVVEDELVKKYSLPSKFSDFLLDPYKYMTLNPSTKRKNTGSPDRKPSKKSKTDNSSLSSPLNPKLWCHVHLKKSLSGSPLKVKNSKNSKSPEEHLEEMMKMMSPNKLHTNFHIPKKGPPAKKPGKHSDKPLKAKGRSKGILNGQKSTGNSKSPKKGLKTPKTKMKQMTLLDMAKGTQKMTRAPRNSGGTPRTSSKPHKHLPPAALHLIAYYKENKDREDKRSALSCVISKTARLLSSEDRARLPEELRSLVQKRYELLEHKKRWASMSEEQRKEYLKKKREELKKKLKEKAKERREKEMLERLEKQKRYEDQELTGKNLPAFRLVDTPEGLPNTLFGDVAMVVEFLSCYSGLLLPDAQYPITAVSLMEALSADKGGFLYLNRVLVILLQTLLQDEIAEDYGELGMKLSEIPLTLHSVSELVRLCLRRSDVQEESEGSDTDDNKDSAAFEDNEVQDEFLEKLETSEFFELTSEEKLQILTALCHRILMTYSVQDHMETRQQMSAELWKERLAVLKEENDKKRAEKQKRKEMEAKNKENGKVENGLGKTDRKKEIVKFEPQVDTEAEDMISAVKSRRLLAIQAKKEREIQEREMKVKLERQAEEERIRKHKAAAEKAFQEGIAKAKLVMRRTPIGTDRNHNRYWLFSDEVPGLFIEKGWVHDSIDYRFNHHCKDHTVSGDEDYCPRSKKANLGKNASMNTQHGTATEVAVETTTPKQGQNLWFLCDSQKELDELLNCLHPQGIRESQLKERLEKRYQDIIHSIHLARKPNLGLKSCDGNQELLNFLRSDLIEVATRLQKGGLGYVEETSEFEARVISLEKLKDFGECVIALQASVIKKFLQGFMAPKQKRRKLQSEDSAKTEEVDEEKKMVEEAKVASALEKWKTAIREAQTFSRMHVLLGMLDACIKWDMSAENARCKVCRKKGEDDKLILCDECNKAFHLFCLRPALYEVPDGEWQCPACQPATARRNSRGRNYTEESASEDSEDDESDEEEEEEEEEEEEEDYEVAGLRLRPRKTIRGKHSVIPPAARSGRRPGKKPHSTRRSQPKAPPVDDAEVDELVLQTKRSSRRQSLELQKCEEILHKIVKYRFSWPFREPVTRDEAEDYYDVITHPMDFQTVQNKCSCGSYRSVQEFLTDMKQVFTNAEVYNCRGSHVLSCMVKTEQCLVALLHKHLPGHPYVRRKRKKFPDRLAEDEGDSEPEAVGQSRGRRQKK

[4] = target: CREB-binding protein (Homo sapiens) (UniProt Q92793); settings: dose 10.0 µM
Homo sapiens = species on record: Homo sapiens; assay: Binding affinity to Cl channel GABA gated receptor (unknown origin) assessed as specific binding at 10 uM relative to control
[5] = target: KV channel (voltage-gated potassium channel family) (Homo sapiens, UniProt O43525+O43526+O95259+P16389+P17658+P22001+P22459+P22460+P48547+P51787+P56696+Q03721+Q09470+Q12809+Q14003+Q14721+Q16322+Q6PIU1+Q8NCM2+Q8TAE7+Q8TDN1+Q8TDN2+Q92953+Q96KK3+Q96L42+Q96PR1+Q96RP8+Q9BQ31+Q9H252+Q9H3M0+Q9NR82+Q9NS40+Q9NSA2+Q9NZV8+Q9UIX4+Q9UJ96+Q9UK17+Q9ULD8+Q9ULS6+Q9UQ05); assay: Binding affinity to KV channel (unknown origin) assessed as specific binding at 10 uM relative to control; assay type: protein assay; settings: read-out: Activity
[6] = target: Protein polybromo-1 (Homo sapiens) (UniProt Q86U86); settings: dose 10.0 µM
Protein polybromo-1 (Homo sapiens), sequence (Q86U86 whole entry): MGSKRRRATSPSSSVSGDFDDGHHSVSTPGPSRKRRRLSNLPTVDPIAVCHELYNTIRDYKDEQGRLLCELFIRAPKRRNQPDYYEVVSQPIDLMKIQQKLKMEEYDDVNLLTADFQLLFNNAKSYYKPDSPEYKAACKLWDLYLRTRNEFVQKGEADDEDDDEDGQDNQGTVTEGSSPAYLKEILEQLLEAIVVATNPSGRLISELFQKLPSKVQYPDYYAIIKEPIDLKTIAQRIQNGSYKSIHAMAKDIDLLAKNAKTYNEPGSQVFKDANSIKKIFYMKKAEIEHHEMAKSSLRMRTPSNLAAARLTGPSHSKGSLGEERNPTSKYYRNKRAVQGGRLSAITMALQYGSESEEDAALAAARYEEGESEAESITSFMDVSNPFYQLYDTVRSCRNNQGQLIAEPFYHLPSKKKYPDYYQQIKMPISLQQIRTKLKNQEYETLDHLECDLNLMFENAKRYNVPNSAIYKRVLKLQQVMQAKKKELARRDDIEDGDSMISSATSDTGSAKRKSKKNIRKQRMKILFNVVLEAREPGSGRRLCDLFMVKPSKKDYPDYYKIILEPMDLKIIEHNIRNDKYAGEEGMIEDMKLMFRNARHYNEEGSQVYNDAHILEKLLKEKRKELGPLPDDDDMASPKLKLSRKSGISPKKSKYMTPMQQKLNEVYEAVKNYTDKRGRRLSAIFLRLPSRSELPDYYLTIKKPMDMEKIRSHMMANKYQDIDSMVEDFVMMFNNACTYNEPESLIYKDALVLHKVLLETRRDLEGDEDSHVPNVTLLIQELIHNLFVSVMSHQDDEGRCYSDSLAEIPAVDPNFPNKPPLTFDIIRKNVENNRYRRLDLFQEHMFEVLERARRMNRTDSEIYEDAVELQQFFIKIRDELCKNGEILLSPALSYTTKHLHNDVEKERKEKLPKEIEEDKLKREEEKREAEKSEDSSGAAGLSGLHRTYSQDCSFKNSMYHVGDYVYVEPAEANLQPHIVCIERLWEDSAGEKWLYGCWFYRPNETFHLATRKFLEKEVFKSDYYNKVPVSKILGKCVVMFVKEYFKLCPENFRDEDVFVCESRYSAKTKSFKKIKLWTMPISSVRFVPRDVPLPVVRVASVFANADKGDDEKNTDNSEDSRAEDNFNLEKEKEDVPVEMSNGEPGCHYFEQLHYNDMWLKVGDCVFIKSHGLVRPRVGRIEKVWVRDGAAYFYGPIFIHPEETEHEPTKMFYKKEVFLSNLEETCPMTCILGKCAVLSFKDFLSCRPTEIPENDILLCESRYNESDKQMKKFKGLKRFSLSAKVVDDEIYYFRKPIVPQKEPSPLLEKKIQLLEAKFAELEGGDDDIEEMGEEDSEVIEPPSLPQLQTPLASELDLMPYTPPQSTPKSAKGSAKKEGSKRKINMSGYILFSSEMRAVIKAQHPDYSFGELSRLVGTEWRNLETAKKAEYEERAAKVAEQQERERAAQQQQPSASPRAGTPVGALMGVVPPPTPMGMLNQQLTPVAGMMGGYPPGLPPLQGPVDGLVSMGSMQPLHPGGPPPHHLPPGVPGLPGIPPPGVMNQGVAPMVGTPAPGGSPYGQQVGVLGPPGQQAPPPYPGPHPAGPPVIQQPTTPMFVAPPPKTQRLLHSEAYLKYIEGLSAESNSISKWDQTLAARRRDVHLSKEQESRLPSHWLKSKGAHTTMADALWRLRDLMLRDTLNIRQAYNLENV

[7] = target: Bromodomain and WD repeat-containing protein 3 (Homo sapiens) (UniProt Q6RI45); settings: dose 10.0 µM
Bromodomain and WD repeat-containing protein 3 (Homo sapiens), sequence (Q6RI45 whole entry): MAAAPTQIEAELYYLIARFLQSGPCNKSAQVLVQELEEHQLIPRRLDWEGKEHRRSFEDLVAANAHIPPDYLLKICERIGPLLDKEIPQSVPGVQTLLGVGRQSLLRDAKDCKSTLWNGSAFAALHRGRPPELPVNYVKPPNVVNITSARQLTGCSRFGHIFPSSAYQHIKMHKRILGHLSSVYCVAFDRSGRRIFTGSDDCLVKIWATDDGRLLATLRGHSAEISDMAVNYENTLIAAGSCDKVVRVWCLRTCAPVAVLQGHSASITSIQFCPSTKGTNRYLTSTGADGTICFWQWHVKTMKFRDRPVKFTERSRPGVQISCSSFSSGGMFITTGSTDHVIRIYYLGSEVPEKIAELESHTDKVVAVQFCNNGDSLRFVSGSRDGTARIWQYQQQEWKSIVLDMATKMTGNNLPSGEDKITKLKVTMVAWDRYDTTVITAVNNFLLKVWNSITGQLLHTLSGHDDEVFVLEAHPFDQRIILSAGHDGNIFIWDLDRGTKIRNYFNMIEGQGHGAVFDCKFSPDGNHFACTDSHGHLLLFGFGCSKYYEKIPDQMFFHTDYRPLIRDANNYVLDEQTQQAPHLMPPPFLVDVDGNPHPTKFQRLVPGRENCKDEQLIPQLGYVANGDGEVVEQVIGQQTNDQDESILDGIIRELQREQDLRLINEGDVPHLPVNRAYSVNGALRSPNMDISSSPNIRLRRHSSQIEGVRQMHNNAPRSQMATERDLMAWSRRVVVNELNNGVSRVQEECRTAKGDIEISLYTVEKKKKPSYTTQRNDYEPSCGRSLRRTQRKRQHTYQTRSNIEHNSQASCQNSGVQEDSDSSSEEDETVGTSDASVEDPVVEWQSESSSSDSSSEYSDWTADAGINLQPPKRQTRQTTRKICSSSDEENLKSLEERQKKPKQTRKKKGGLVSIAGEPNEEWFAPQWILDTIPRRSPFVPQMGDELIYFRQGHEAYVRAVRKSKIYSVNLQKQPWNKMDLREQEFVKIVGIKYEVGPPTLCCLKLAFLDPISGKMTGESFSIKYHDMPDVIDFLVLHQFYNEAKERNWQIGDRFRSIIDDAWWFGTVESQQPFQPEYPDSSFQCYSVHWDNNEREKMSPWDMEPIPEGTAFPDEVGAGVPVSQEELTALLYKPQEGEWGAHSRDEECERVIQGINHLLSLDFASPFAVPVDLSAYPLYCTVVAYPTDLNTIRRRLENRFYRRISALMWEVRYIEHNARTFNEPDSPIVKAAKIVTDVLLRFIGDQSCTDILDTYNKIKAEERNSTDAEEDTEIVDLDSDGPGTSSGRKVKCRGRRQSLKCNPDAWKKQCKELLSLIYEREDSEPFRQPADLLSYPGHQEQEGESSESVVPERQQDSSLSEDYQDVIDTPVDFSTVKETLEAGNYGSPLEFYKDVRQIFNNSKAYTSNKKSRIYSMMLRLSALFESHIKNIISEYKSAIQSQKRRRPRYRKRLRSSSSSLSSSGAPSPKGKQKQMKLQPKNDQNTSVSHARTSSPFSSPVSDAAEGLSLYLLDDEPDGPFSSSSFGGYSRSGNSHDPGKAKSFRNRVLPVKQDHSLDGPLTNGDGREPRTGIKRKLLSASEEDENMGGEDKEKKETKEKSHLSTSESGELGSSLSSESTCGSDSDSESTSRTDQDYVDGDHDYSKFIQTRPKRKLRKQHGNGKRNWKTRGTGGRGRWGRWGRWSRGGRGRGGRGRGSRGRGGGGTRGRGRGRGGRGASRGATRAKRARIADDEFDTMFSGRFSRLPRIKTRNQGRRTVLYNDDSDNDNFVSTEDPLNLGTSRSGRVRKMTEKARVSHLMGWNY

[8] = target: Nucleosome-remodeling factor subunit BPTF (Homo sapiens) (UniProt Q12830); settings: dose 10.0 µM

Structure (SMILES): COc1cc2c(cc1NS(=O)(=O)c1ccc(Br)cc1C)n(C)c(=O)n2C
- deltaG [1]: -8.3 kcal/mol
- ΔTm [2]: 1.6 °C
- ΔTm [3]: 0.3 °C
- ΔTm [4]: 0.4 °C
- Activity (Homo sapiens): 95.3%
- activity at 10 µM [5]: 124%
- ΔTm [6]: 0.6 °C
- ΔTm [7]: 1.3 °C
- ΔTm [8]: 0.9 °C

Reference: ChEMBL document CHEMBL5715956, “Selective Targeting of Bromodomains of the Bromodomain-PHD Fingers Family Impairs Osteoclast Differentiation” (ACS Chem Biol, 2017)
